“Also recorded” adds a separate entry of the source. Where two headings read alike, the source gives them in different places.
Legend:
clinical = settings: human, plasma, Plasma aliskiren on treatment (trough), after four weeks, median (interquartile range)
hypertensive patients = assay: Clinic blood pressure, change from baseline with study treatment, by renin −5312 C/T genotype; type: in vivo, human; settings: for BP lowering by −5312 C/T genotype: clinic and ambulatory BP, T allele carriers versus CC homozygotes
Source text: Tables 2 and 3 show baseline clinic and ambulatory blood pressures, and the changes from baseline with study treatment.

[1] = for Plasma aliskiren on treatment (trough): Aliskiren 300 mg, after four weeks, median (interquartile range)
plasma renin activity [2] = biological target: T1, plasma renin activity (Homo sapiens, UniProt P00797); assay: Trough plasma renin activity (PRA) after four weeks of treatment; settings: after four weeks, median (interquartile range)
T1 sequence (P00797 67-406): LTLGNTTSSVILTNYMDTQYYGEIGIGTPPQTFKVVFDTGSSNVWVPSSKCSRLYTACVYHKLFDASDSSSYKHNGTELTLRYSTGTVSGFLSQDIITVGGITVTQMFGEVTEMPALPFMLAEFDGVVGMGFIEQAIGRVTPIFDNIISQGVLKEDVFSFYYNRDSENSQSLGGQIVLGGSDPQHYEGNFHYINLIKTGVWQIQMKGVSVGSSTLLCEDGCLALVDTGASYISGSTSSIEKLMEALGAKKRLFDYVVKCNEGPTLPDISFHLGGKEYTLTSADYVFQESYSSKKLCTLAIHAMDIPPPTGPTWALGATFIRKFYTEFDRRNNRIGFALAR

plasma renin activity [3] = assay: as above; settings: for Effect of therapy on PRA: trough PRA after four weeks of treatment; for PRA Percentage Change / PRA on treatment (trough): Losartan 100 mg, after four weeks, median (interquartile range)
plasma renin = settings: aliskiren 160-640 mg; unstimulated plasma renin 10-20 pg/ml; cited from earlier work
[4] = Ren CC homozygotes, Aliskiren 37.5 mg
[5] = Ren CC homozygotes, Aliskiren 75 mg
[6] = Ren CC homozygotes, Aliskiren 150 mg
[7] = Ren CC homozygotes, Aliskiren 300 mg
[8] = Ren T allele carriers, Aliskiren 37.5 mg
[9] = Ren T allele carriers, Aliskiren 75 mg
[10] = Ren T allele carriers, Aliskiren 150 mg
[11] = Ren T allele carriers, Aliskiren 300 mg

Q: Which concentration at 4 weeks (clinical; 37.5 mg, Ren CC homozygotes, Aliskiren 37.5 mg) does the source give for `COCCCOc1cc(C[C@@H](C[C@H](N)[C@@H](O)C[C@H](C(=O)NCC(C)(C)C(N)=O)C(C)C)C(C)C)ccc1OC` [Aliskiren] here?
A: Its concentration at 4 weeks is 3.1 ng/mL.

Q: And the concentration at 4 weeks (clinical; 37.5 mg, Ren T allele carriers, Aliskiren 37.5 mg)?
A: Its concentration at 4 weeks is 2.4 ng/mL.

Q: And the concentration at 4 weeks (clinical; 75 mg, Ren CC homozygotes, Aliskiren 75 mg)?
A: The concentration at 4 weeks was 4.4 ng/mL.

Q: And the concentration at 4 weeks (clinical; 75 mg, Ren T allele carriers, Aliskiren 75 mg)?
A: Its concentration at 4 weeks is 3.9 ng/mL.

Q: And the concentration at 4 weeks (clinical; 150 mg, Ren CC homozygotes, Aliskiren 150 mg)?
A: The concentration at 4 weeks was 11 ng/mL.

Q: And the concentration at 4 weeks (clinical; 150 mg, Ren T allele carriers, Aliskiren 150 mg)?
A: The concentration at 4 weeks was 7.1 ng/mL.

Q: And the concentration at 4 weeks (clinical; 300 mg, Ren CC homozygotes, Aliskiren 300 mg)?
A: Its concentration at 4 weeks is 31.9 ng/mL.

Q: What about the concentration at 4 weeks (clinical; 300 mg, Ren T allele carriers, Aliskiren 300 mg) of the same molecule?
A: Its concentration at 4 weeks is 20.5 ng/mL.

Q: What about the “Relationship between dose and BP lowering” value (hypertensive patients; Aliskiren 37.5 to 300 mg daily) of the same molecule?
A: The value was “clear dose response relationship”.

Q: And the “BP lowering by −5312 C/T genotype” value (hypertensive patients)?
A: The value was “BP lowering was greatest amongst CC homozygotes; also recorded: amongst CC homozygotes of the −5312 C/T variant”.

Q: What about the “Plasma aliskiren on treatment (trough)” value ([1]; Ren CC homozygotes) of the same molecule?
A: Its value is 31.5 (70.3, 13.5) ng/ml.

Q: And the “Plasma aliskiren on treatment (trough)” value ([1]; Ren T allele carriers)?
A: The value was 20.5 (41.0, 17.0) ng/ml.

Q: And the “Reduction of on treatment plasma aliskiren levels amongst T allele carriers” value ([1]; T allele carriers versus CC homozygotes, trough, after 4 weeks of treatment)?
A: The value was 20%-30%.

Q: And the “PRA Percentage Change” value (plasma renin activity [2]; [4])?
A: Its value is −50.0 (−4.5, −62.7) %.

Q: And the “PRA on treatment (trough)” value (plasma renin activity [2]; [4])?
A: Its value is 0.32 (0.12, 0.77) ng/ml/h.

Q: And the “PRA Percentage Change” value (plasma renin activity [2]; [5])?
A: Its value is −61.7 (−32.7, −82.1) %.

Q: And the “PRA on treatment (trough)” value (plasma renin activity [2]; [5])?
A: Its value is 0.16 (0.09, 0.46) ng/ml/h.

Q: And the “PRA Percentage Change” value (plasma renin activity [2]; [6])?
A: Its value is −77.8 (−70.6, −84.8) %.

Q: And the “PRA on treatment (trough)” value (plasma renin activity [2]; [6])?
A: Its value is 0.10 (0.06, 0.31) ng/ml/h.

Q: And the “PRA Percentage Change” value (plasma renin activity [2]; [7])?
A: Its value is −82.5 (−69.9, −86.7) %.

Q: And the “PRA on treatment (trough)” value (plasma renin activity [2]; [7])?
A: Its value is 0.17 (0.06, 0.42) ng/ml/h.

Q: What about the “PRA Percentage Change” value (plasma renin activity [2]; [8]) of the same molecule?
A: Its value is −63.8 (−11.2, −77.9) %.

Q: And the “PRA on treatment (trough)” value (plasma renin activity [2]; [8])?
A: The value was 0.17 (0.06, 0.89) ng/ml/h.

Q: What about the “PRA Percentage Change” value (plasma renin activity [2]; [9]) of the same molecule?
A: Its value is −54.3 (−44.4, −81.5) %.

Q: And the “PRA on treatment (trough)” value (plasma renin activity [2]; [9])?
A: The value was 0.42 (0.20, 0.59) ng/ml/h.

Q: What about the “PRA Percentage Change” value (plasma renin activity [2]; [10]) of the same molecule?
A: Its value is −75.7 (−67.4, −82.1) %.

Q: And the “PRA on treatment (trough)” value (plasma renin activity [2]; [10])?
A: The value was 0.17 (0.12, 0.47) ng/ml/h.

Q: And the “PRA Percentage Change” value (plasma renin activity [2]; [11])?
A: The value was −82.5 (−69.9, −86.7) %.

Q: What about the “PRA on treatment (trough)” value (plasma renin activity [2]; [11]) of the same molecule?
A: The value was 0.18 (0.06, 0.51) ng/ml/h.

Q: What about the “Effect of therapy on PRA” value (plasma renin activity [3]) of the same molecule?
A: The value was “suppressed PRA”.

Q: And the “Plasma renin levels in the presence of aliskiren” value (plasma renin)?
A: The value was 300 to 600 pg/mL.

Q: Which results are given for `CCCCc1nc(Cl)c(CO)n1Cc1ccc(-c2ccccc2-c2nn[nH]n2)cc1` [Losartan]?
A: BP lowering by −5312 C/T genotype (hypertensive patients): greatest with Losartan 100 mg daily amongst T allele carriers; also recorded: amongst T allele carriers of the −5312 C/T variant; PRA Percentage Change (plasma renin activity [3]; Ren CC homozygotes): 110.32 (15.4, 262.5) %; PRA on treatment (trough) (plasma renin activity [3]; Ren CC homozygotes): 1.65 (0.60, 3.20) ng/ml/h; PRA Percentage Change (plasma renin activity [3]; Ren T allele carriers): 97.6 (22.2, 363.8) %; PRA on treatment (trough) (plasma renin activity [3]; Ren T allele carriers): 1.80 (0.65, 3.30) ng/ml/h; Effect of therapy on PRA (plasma renin activity [3]): increased PRA levels
